# Test results published in US12403114B2, “Cannabinoid acid ester compositions and uses thereof” (EPM (IP), INC., priority 2019, dated 2025).
# Tests used:
# [1] = system: DSS induced acute colitis; assay: DSS induced acute colitis mouse model, EPM-301 versus EPM-302, Example 13; type: in vivo, C57BL/6 mice; conditions: 10 mg/kg
# Procedure: Colitis was induced in 10 weeks old female C57BL/6 mice using dextran sodium sulphate (DSS). Mice were fed for 8 days with 2% (wt/vol) DSS in their drinking water. […] EPM-302 served as an additional control.
# (§1) Weight loss was measured on days 1, 3, 5, 8, and 10.
# (§2) Next, the mice were sacrificed and the length of their colons were measured.
# Cytokine levels of IL-6 and TNFα were measured using ELISA kits (R&D Systems, USA). Colon TNFα (FIG. 19), blood IL-6 (FIG. 20), levels were lower in mice treated with CBDA-Me (EPM-301) as compared to EPM-302. Similarly, the MEICS score of EPM-301 treated subjects were also lower than EPM-302 treated subjects (FIG. 21). Representative photos of colonoscopy can be seen in FIG. 22A-22D.
# [2] = biological target: T1, glucose transporter 2 (GLUT2) (Homo sapiens, UniProt P11168); assay: 2-NBDG glucose uptake in transfected HEK293t cells; type: cell-based; conditions: 50-0.1 μM tested
# T1 construct: expressed in transfected cells; host or cells: HEK293t
# T1 sequence (P11168 1-524): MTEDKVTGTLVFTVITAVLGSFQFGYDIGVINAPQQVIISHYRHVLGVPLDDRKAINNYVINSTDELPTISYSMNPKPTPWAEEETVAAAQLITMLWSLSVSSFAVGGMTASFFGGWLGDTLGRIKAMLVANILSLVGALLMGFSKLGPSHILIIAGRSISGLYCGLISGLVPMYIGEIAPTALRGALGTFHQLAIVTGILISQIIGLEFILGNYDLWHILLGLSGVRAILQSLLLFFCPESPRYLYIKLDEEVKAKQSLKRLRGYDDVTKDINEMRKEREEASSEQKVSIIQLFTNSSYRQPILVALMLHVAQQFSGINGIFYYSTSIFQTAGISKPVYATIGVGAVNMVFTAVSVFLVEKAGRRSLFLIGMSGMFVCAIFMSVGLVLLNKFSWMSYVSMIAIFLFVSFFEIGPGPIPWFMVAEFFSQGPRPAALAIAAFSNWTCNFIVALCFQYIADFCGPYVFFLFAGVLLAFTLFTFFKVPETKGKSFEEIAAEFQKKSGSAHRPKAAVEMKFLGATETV
# Procedure: In vitro assays for measuring glucose uptake were designed to assess whether EPM-301 and EPM-302 compounds are capable of inhibiting or increasing glucose uptake via glucose transporters (GLUTs).
# Transfected HEK293t cells, which express the glucose transporter 2 (GLUT2), were cultured in a 96 well plate and maintained at 37° C. in 5% CO2 in DMEM medium supplemented with 10% FCS, 2 mM 1-glutamine, 1 mM sodium pyruvate, 100 U/mL penicillin, and […] streptomycin for 24 h. The medium was then washed with a choline chloride Na^+-free buffer (CCB), in which only GLUTs (and not the sodium/glucose transporters [SGLTs]) were active. The wells were then added with CCB/CCB+2-NBDG (a fluorescent derivative of glucose). Compounds were tested in a range of concentrations for their ability to inhibit/increase 2-NBDG uptake into the cells. After 1.5 h incubation, cells were washed with CCB and incubated with 1 μg/μL of Hoechst for 15 mins at 37° C. and protected from light. Fluorescence was measured by the Cytation-3 plate reader at ex:485 nm/em:528 nm and ex:350 nm/em:461 nm for 2-NBDG Hoechst, respectively. Results of the 2-NBDG levels were normalized to Hoechst levels of each well, and presented as a change in the uptake of 2-NBDG in comparison with Vehicle-treated group.
# Vehicle solution (choline chloride buffer), EPM-301 (50-0.1 μM), and EPM-302 (50-0.1 μM) were used for the experiments.
# Values are expressed as mean±SEM. Unpaired two-tailed student's t-test was used to determine the differences between the groups. Significance was set at p<0.05. *versus vehicle; #versus control.
# [3] = system: Th1 (chronic and acute atopic dermatitis) mediated inflammation; assay: Ex vivo induced inflammation of human skin explants, Th1 stimulation; type: cell-based; conditions: topical at 40 h and 16 h prior to stimulation; degree comparable/improved to 1% hydrocortisone ointment (FIG. 6)
# Procedure: (§3) The efficacy of CBDA-Me was compared to that of corticosteroid treatment in an ex vivo model of induced inflammation of human skin explants (see for example WO2019/063122 and WO2014/182655).
# (§4) Freshly excised healthy human skin was dermatomed to an approximate thickness of 750±100 μm. The dermatomed skin was cut into 1 cm^2 sections and mounted onto static Franz cells with a dosing area of approximately 0.6 cm^2.
# (§5) The experiment was performed as follows: • (i) Static Franz cells (n=4 per treatment), with an average surface area of approximately 0.6 cm^2 and a volume of approximately 2.0 mL were employed. • (ii) Skin was mounted onto the static Franz cell, Stratum corneum side up, and clamped into place. • (iii) The receptor compartment was filled with approximately 2 mL of warm (ca. 37° C.) Cornification media. • (iv) CBDA-Me or 1% Perrigo® hydrocortisone ointment (control) was applied topically at 40 hours and 16 hours prior to stimulation and was incubated at 37° C. with 5% C02. • (v) The contents of the receptor compartment from each cell was vacuum aspirated and replaced with 2 mL pre-warmed (ca. 37° C.) cornification media, containing either Th1 or Th17 stimulation cocktail. • (vi) Tissue explants were harvested at 24 hours post-stimulation and placed in RNAlater® solution for further processing. […]
# [4] = system: Th17 (psoriasis) mediated inflammation; assay: Ex vivo induced inflammation of human skin explants, Th17 stimulation; type: cell-based; conditions: topical at 40 h and 16 h prior to stimulation; degree comparable/improved to 1% hydrocortisone ointment (FIG. 7)
# Procedure: as §3, §4, §5
# [5] = system: chronic colitis in IL-10 KO mice; assay: Chronic colitis mouse model (IL-10 KO), Example 12; type: in vivo; conditions: IL-10 KO mice fed twice a day for 13 weeks
# Procedure: Mice with targeted discruption of the IL-10 gene (IL-10 KO) and littermate wild-type controls (IL-10 WT) were used (see for example Scheinin et al., Clin. Exp. Immunol., 2003, 133:38-43). After 4 weeks of age mice were fed twice a day for 13 weeks with one of the following treatments: CBD, CBDA-Me, an anti-TNF antibody (control), none (untreated control mice). The CBDA-Me efficacy is compared to CBD and controls.
# Cytokine levels of IL-1B and TNFα were measured using ELISA kits (R&D Systems, USA). Colon TNFα (FIG. 14), blood IL-1b (FIG. 15), and mouse endoscopic index of colitis severity (MEICS) scoring levels (FIG. 16) were lower in mice treated with CBDA-Me compared to CBD.
# [6] = system: DSS induced acute colitis; assay: DSS induced acute colitis mouse model, Example 11; type: in vivo, C57BL/6 mice
# Procedure: The therapeutic effect of CBDA-Me on inflammatory bowel disease (IBD) was examined in an acute colitis mouse model. Colitis was induced in 10 weeks old female C57BL/6 mice using dextran sodium sulphate (DSS). Mice were fed for 8 days with 2% (wt/vol) DSS in their drinking water. Mice were administered (3 animals in each group) one of the following treatments by gavage: CBD (400 mg/kg), CBDA-Me (10 mg/kg or 40 mg/kg), DSS alone (untreated control), prednisone (90 mg/kg, control), none (healthy mice).
# as §1, §2
# Cytokine levels of IL-6 and TNFα were measured using ELISA kits (R&D Systems, USA). Colon TNFα (FIG. 10), blood IL-6 (FIG. 11), and mouse endoscopic index of colitis severity (METICS) scoring levels (FIG. 12) were lower in mice treated with CBDA-Me compared to CBD. Representative photos of colonoscopy can be seen in FIG. 13A-13E.
# [7] = system: endometriosis induced by implantation of rat uterine cornu on the mesenterium; assay: In vivo rat endometriosis model, pain response to oxytocin; conditions: day 24; injected intra-peritoneally after 21 days; as compared to the control (saline)
# Procedure: Endometriosis was induced by implantation of rat uterine comu on the mesenterium. The tissue was allowed to proliferate in vivo for 21 days. After 21 days, rats in the control group were injected intra-peritoneally with saline while rats in the experimental group were injected with CBDA-Me. Pain response to oxytocin was measured on day 24. The pain response decreased by 50% in the group treated with CBDA-Me as compared to the control.
# [8] = system: Human Endometrial Stromal Cell Line (SHT290); assay: In vitro endometriosis model: attachment and proliferation of endometrial stromal cells; type: cell-based; conditions: added to the medium; dose dependent fashion
# Procedure: Cultured cells from Human Endometrial Stromal Cell Line (SHT290) were used. CBDA-Me was added to the medium and the attachment of cells and their proliferation rate were measured.
# [9] = system: partial meniscectomy/ACL transection rat model of surgical induced osteoarthritis and pain induced incapacitance; assay: Weight bearing in rat meniscectomy model versus hyaluronate and corticosteroid, Example 6; type: in vivo
# Procedure: Rats were allowed to acclimatize for 1 week, followed by assessment of their weight bearing preference using an incapacitance meter. Unilateral medical meniscectomy and anterior cruciate ligament […] (MMX/ACLT) surgery was performed on the right knee of a subject rat. Weight bearing preference was tested before and after surgery. After 2 weeks, treatments with both intra-articular (1) and. intra-peritoneal (6) administrations of EPM301 began in the EPM301 group. In the hyaluronate (HA) and corticosteroid (CS) groups, a single intra-articular injection was performed 2 weeks after model induction. Weight bearing preference was then assessed 4 and 7 days after the start of therapy.
# Wistar Rats (HsdHan female rats 225-249 grams) were acquired from Envigo. The rats were evaluated using an incapacitance tester. They were tested pre-operation, one-week post-operation, two weeks post-operation, prior to injection, 4 and 7 days post injections.
# EPM-301 was dissolved in a solution mixture of 1:1:18 EtOH:cremophor:seline to a final concentration of 3.5 mg/mL. Hyaluronic acid (Arthrease, 1% sodium hyaluronate) and Dexamethasone (kem Pharma, Venus, 72, Pol. Ind. Colom II, 08228 Terrassa, Barcelona) were acquired.
# Intra-articular (i.a.) injection was carried out with 100 uL and intra-peritoneal (i.p.) injections were carried out with 150 uL. All were injected i.a. in the first day. EPM-301 was injected via i.p. administration on the first day, and for 5 additional days everyday via i.p. administration.
# Student's t-test was performed at the last follow-up time to determine effect of the therapy as primary endpoint. The level of significance was 0.05 alpha. ANOVA was used to compare all time points, a post-hob analysis with the Scheffe all comparisons method was performed. Calculations were performed using the Analyze-it Excel add-on function.
# The percentage of weight bearing was calculated as the amount of weight born (in grams) on the right hind limb divided by the amount of weight born on the left hind limb. This ratio was expressed as percentage weight bearing. Prior to operation the Rt/Lt weight bearing in both groups was similar. There were 4 animals in the EPM-301 treated group and 8 animals in each of the HA and CS treated groups, with a total of 20 tested subjects.
smiles,measurement,setting,value
CCCCCc1cc(O)c(C2C=C(C)CCC2C(C)C)c(O)c1C(=O)OC (stereo not drawn) [EPM-302],therapeutic effect,[1],not enough to induce a therapeutic effect
same,concentration at which the effect on glucose transport was observed,[2],all concentrations tested
same,glucose uptake (2-NBDG) in HEK293 cells,"[2]; 1.5 h incubation, versus vehicle (FIG. 36A, 36B)",significantly reduce
"C=C(C)[C@@H]1CCC(C)=CC1c1c(O)cc(CCCCC)c(C(=O)OC)c1O (stereo in doubt) [EPM-301, cannabidiolic acid methyl ester]","Th1 mediated inflammation (IFNγ, TNFα, IL1β, IL2, IL13 by RT-qPCR)",[3],inhibition
same,"Th17 mediated inflammation (IL17α, IL22, CXCL10, IL36g, SerpinB4 by RT-qPCR)",[4],inhibition
same,colon TNFα,[5]; compared to CBD (FIG. 14),lower
same,blood IL-1b,[5]; compared to CBD (FIG. 15),lower
same,mouse endoscopic index of colitis severity (MEICS) scoring,[5]; compared to CBD (FIG. 16),lower
same,weight loss,"[6]; 40 mg/kg by gavage, compared to CBD (400 mg/kg), days 1-10 (FIG. 8)",reduced
same,colon length,"[6]; 40 mg/kg by gavage, versus CBD and untreated control mice, similar to prednisone (FIG. 9)",greater
same,mouse endoscopic index of colitis severity scoring,[6]; compared to CBD (FIG. 12),lower
same,colon TNFα,"[6]; compared to CBD, ELISA (FIG. 10)",lower
same,blood IL-6,"[6]; compared to CBD, ELISA (FIG. 11)",lower
same,decrease of pain response to oxytocin,[7],50%
same,attachment of cells,[8],decrease
same,proliferation rate,[8],decrease
"C[C@@H]1C[C@H]2[C@@H]3CCC4=CC(=O)C=C[C@]4(C)[C@@]3(F)[C@@H](O)C[C@]2(C)[C@@]1(O)C(=O)CO [CS, Dexamethasone, reference compound]",Rt limb weight bearing,"[9]; following injections, EPM-301 i.a. once plus i.p. 6 days, HA and CS single i.a. injection",62.1%
same,weight bearing,"[9]; immediately prior to injection, two weeks following model induction (baseline before treatment)",52.5%
